Species on record: Rattus norvegicus
Assay: Effective concentration for relaxation of isolated rat aortic strips, submaximally contracted with phenylephrine at 0.1 uM was determined
Type: functional
Details: Aorta

O=[N+]([O-])OCC(CO[N+](=O)[O-])O[N+](=O)[O-] [NITROGLYCERIN]
EC50: 1900 nM
